Measurements reported in patent US10766903B2 (ALMAC DISCOVERY LIMITED, priority 2016, dated 2020).
Where two headings read alike, the source gives them in different places.

How the values were obtained:
LNCaP cells = assay: LNCaP proliferation assay (CellTiter-Glo); assay type: cell-based; conditions: Homo sapiens, Table 1, cell viability after 168 h
Description: LNCaP cells from ATCC, were seeded in 96 well plate format (typically 2500 cells/well) in their growth media (RPMI, Life Technologies #52400-025+10% Fetal Calf Serum, Life Technologies #10500-064) and treated after 24 h with increasing concentration of compound from 0 to 30 μM. Cell viability was assessed after 168 h by CellTiter-Glo® as recommended by the manufacturer's instructions (Promega). Analysis and EC50 values were derived using GraphPadPrism.

USP7 = USP7 (Homo sapiens (Human), UniProt Q93009); assay: USP7 fluorescence polarisation (FP) biochemical assay, ubiquitin-Lys-TAMRA substrate
Chain of USP7 (Q93009 whole entry): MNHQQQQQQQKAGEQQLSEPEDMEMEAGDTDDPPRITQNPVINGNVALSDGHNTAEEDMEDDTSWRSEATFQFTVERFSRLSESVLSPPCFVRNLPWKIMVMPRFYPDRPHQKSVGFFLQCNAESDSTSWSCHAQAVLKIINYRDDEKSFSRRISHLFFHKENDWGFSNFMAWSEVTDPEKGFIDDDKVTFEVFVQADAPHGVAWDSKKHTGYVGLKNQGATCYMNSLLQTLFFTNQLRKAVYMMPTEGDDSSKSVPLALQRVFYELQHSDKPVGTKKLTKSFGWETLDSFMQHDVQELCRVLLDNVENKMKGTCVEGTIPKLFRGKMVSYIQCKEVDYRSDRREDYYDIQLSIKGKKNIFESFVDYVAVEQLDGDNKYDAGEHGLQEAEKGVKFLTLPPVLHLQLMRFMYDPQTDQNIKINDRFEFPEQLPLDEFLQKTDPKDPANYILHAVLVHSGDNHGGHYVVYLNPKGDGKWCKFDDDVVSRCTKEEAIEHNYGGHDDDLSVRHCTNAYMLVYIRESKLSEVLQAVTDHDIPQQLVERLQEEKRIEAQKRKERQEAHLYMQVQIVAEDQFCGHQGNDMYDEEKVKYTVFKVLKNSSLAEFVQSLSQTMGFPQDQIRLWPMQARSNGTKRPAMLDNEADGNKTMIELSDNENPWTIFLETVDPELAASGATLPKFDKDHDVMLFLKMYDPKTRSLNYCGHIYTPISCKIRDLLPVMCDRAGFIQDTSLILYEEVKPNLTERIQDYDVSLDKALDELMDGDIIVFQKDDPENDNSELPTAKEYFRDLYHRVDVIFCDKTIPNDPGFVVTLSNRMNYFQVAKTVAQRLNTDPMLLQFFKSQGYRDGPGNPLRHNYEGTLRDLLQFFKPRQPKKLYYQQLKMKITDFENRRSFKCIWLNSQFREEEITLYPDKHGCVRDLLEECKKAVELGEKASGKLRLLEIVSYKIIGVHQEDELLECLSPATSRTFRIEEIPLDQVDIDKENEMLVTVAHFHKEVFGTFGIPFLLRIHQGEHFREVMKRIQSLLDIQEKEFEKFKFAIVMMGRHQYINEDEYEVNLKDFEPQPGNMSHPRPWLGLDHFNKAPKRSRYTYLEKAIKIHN
Summary of the method: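 Full-length His6-USP7 (2.5 nM) incubated ± inhibitor (8-point dilutions, 200 to 0.1 μM before addition) in 50 mM HEPES pH 7.2, 150 mM NaCl, 0.5 mM EDTA, 5 mM DTT, 0.05% BSA, 0.05% CHAPS. Ubiquitin-Lys-TAMRA cleavage followed by FP (ex 530/em 575 nm) every 15 min for 1.5 h; normalised to no-compound control.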

[1] = Table 1, R9a = H versus R9a = Cl, read-out: USP7 IC50
[2] = Table 4, biochemical assay, average of at least duplicate experiments, read-out: USP7 IC50
[3] = USP7 IC50, Table 4, biochemical assay, average of at least duplicate experiments

| Structure (SMILES) | IC50 (USP7; [2]) | other results |
| --- | --- | --- |
| CC1(C(=O)N2CCC(O)(Cn3cnc4c(cc(Cl)n4-c4ccc5c(c4)OCO5)c3=O)CC2)CC1 [Example 202, 7-(Benzo[d][1,3]dioxol-5-yl)-6-chloro-3-((4-hydroxy-1-(1-methylcyclopropanecarbonyl)piperidin-4-yl)methyl)-3H-pyrrolo[2,3-d]pyrimidin-4(7H)-one] | 250 to 999 nM | EC50 (LNCaP cells): 51 nM; IC50 (USP7; [1]): 250 nM |
| Cc1ccc([C@@H](CC(=O)N2CCC(O)(Cn3cnc4c(-c5ccc(CN)cc5)n(C)nc4c3=O)CC2)C(F)(F)F)s1 [Example 125, (S)-3-(4-(Aminomethyl)phenyl)-6-((4-hydroxy-1-(4,4,4-trifluoro-3-(5-methylthiophen-2-yl)butanoyl)piperidin-4-yl)methyl)-2-methyl-2H-pyrazolo[4,3-d]pyrimidin-7(6H)-one] |  | IC50 (USP7; [3]): 250 to 999 nM |
| Cn1nc2c(=O)n(CC3(O)CCN(C(=O)C[C@H](c4ccccc4)C(F)(F)F)CC3)cnc2c1-c1ccc(C2(N)CCC2)cc1 [Example 88, (R)-3-(4-(1-Aminocyclobutyl)phenyl)-6-((4-hydroxy-1-(4,4,4-trifluoro-3-phenylbutanoyl)piperidin-4-yl)methyl)-2-methyl-2H-pyrazolo[4,3-d]pyrimidin-7(6H)-one] | < 250 nM |  |
| C[C@H](CC(=O)N1CCC(O)(Cn2cnc(NCCO)cc2=O)CC1)c1ccccc1 [Example 103, (R)-3-((4-Hydroxy-1-(3-phenylbutanoyl)piperidin-4-yl)methyl)-6-((2-hydroxyethyl)amino)pyrimidin-4(3H)-one] | 1000 to 200000 nM |  |
| C[C@H](CC(=O)N1CCC(O)(Cn2cnc(-c3cnn(C)c3)cc2=O)CC1)c1ccccc1 [Example 40, (R)-3-((4-Hydroxy-1-(3-phenylbutanoyl)piperidin-4-yl)methyl)-6-(1-methyl-1H-pyrazol-4-yl)pyrimidin-4(3H)-one] |  | IC50 (USP7; [3]): 250 to 999 nM |
| Cc1nc2c(=O)n(CC3(O)CCN(C(=O)C[C@@H](C)c4ccccc4)CC3)cnc2n1-c1ccc(CN)cc1 [Example 72, (R)-9-(4-(Aminomethyl)phenyl)-1-((4-hydroxy-1-(3-phenylbutanoyl)piperidin-4-yl)methyl)-8-methyl-1H-purin-6(9H)-one] | < 250 nM |  |
| C[C@H](CC(=O)N1CCC(O)(Cn2cnc(Cl)c(N)c2=O)CC1)c1ccccc1 [Example 14, (R)-5-Amino-6-chloro-3-((4-hydroxy-1-(3-phenylbutanoyl)piperidin-4-yl)methyl)pyrimidin-4(3H)-one] | 1000 to 200000 nM |  |
| Cn1nc2c(=O)n(CC3(O)CCN(C(=O)C[C@H](c4ccccc4)C(F)(F)F)CC3)cnc2c1-c1ccc(CN2CCOCC2)cc1 [Example 137, (R)-6-((4-Hydroxy-1-(4,4,4-trifluoro-3-phenylbutanoyl)piperidin-4-yl)methyl)-2-methyl-3-(4-(morpholinomethyl)phenyl)-2H-pyrazolo[4,3-d]pyrimidin-7(6H)-one] | < 250 nM |  |
| O=C(C[C@H](c1ccccc1)C(F)(F)F)N1CCC(O)(Cn2cnc3c(ncn3-c3ccccc3)c2=O)CC1 [Example 128, (R)-1-((4-Hydroxy-1-(4,4,4-trifluoro-3-phenylbutanoyl)piperidin-4-yl)methyl)-9-phenyl-1H-purin-6(9H)-one] | 250 to 999 nM |  |
| C[C@H](CC(=O)N1CCC(O)(Cn2cnc3c(Nc4ccccc4)n(C)nc3c2=O)CC1)c1ccccc1 [Example 43, (R)-6-((4-Hydroxy-1-(3-phenylbutanoyl)piperidin-4-yl)methyl)-2-methyl-3-(phenylamino)-2H-pyrazolo[4,3-d]pyrimidin-7(6H)-one] | 1000 to 200000 nM |  |
| C[C@H](CC(=O)N1CCC(O)(CN2C(=O)Cc3ccccc32)CC1)c1ccccc1 [Example 126, (R)-1-((4-Hydroxy-1-(3-phenylbutanoyl)piperidin-4-yl)methyl)indolin-2-one] | 1000 to 200000 nM |  |
| C[C@H](CC(=O)N1CCC(O)(Cn2cnc(NCCN3CCC[C@H]3C)cc2=O)CC1)c1ccccc1 [Example 114, 3-((4-Hydroxy-1-((R)-3-phenylbutanoyl)piperidin-4-yl)methyl)-6-((2-((R)-2-methylpyrrolidin-1-yl)ethyl)amino)pyrimidin-4(3H)-one, Formic Acid] | < 250 nM |  |
| C[C@H](CC(=O)N1CCC(O)(Cn2cnc3c(C#CCO)n(C)nc3c2=O)CC1)c1ccccc1 [Example 31, (R)-6-((4-Hydroxy-1-(3-phenylbutanoyl)piperidin-4-yl)methyl)-3-(3-hydroxyprop-1-yn-1-yl)-2-methyl-2H-pyrazolo[4,3-d]pyrimidin-7(6H)-one] | < 250 nM |  |
| CC(=O)N1CCC(O)(Cn2cnc3c(-c4ccccc4)n(C)nc3c2=O)CC1 [Example 131, 6-((1-Acetyl-4-hydroxypiperidin-4-yl)methyl)-2-methyl-3-phenyl-2H-pyrazolo[4,3-d]pyrimidin-7(6H)-one] | 1000 to 200000 nM |  |
| Cn1nc2c(=O)n(CC3(O)CCN(C(=O)C[C@H](c4cc(F)cc(F)c4)C(F)(F)F)CC3)cnc2c1-c1ccc(CN)cc1 [Example 84, (R)-3-(4-(Aminomethyl)phenyl)-6-((1-(3-(3,5-difluorophenyl)-4,4,4-trifluorobutanoyl)-4-hydroxypiperidin-4-yl)methyl)-2-methyl-2H-pyrazolo[4,3-d]pyrimidin-7(6H)-one] | 1000 to 200000 nM |  |

The next lines start with results.

| IC50 (USP7; [2]) | Structure (SMILES) | other results |
| --- | --- | --- |
| < 250 nM | CC1(C(=O)N2CCC(O)(Cn3cnc4c(cc(Cl)n4-c4ccc(Cl)cc4)c3=O)CC2)CC1 [Example 203, 6-Chloro-7-(4-chlorophenyl)-3-((4-hydroxy-1-(1-methylcyclopropanecarbonyl)piperidin-4-yl)methyl)-3H-pyrrolo[2,3-d]pyrimidin-4(7H)-one] | EC50 (LNCaP cells): 22 nM; IC50 (USP7; [1]): 220 nM |
| < 250 nM | Cn1cc(-c2cccc(-n3c(Cl)cc4c(=O)n(CC5(O)CCN(C(=O)C6(C)CC6)CC5)cnc43)c2)cn1 [Example 212, 6-Chloro-3-((4-hydroxy-1-(1-methylcyclopropanecarbonyl)piperidin-4-yl)methyl)-7-(3-(1-methyl-1H-pyrazol-4-yl)phenyl)-3H-pyrrolo[2,3-d]pyrimidin-4(7H)-one] | EC50 (LNCaP cells): 55 nM; IC50 (USP7; [1]): 140 nM |
| 1000 to 200000 nM | CC1(C(=O)N2CCC(O)(Cn3cnc4c(cc(Cl)n4-c4cccc(-n5cc(C(F)(F)F)cn5)c4)c3=O)CC2)CC1 [Example 225, 6-Chloro-3-((4-hydroxy-1-(1-methylcyclopropanecarbonyl)piperidin-4-yl)methyl)-7-(3-(4-(trifluoromethyl)-1H-pyrazol-1-yl)phenyl)-3H-pyrrolo[2,3-d]pyrimidin-4(7H)-one] |  |
| 1000 to 200000 nM | O=C(c1cnc(C2CC2)o1)N1CCC(O)(Cn2cnc3c(nnn3-c3ccccc3)c2=O)CC1 [Example 198, 6-((1-(2-Cyclopropyloxazole-5-carbonyl)-4-hydroxypiperidin-4-yl)methyl)-3-phenyl-3H-[1,2,3]triazolo[4,5-d]pyrimidin-7(6H)-one] |  |
| < 250 nM | C[C@H](CC(=O)N1CCC(O)(Cn2cnc3c(nnn3-c3ccccc3)c2=O)CC1)c1ccccc1 [Example 185, (R)-6-((4-Hydroxy-1-(3-phenylbutanoyl)piperidin-4-yl)methyl)-3-phenyl-3H-[1,2,3]triazolo[4,5-d]pyrimidin-7(6H)-one] |  |
| 1000 to 200000 nM | COCC1CN(c2cc(=O)n(CC3(O)CCN(C(=O)C[C@@H](C)c4ccccc4)CC3)cn2)C1 [Example 141, (R)-3-((4-hydroxy-1-(3-phenylbutanoyl)piperidin-4-yl)methyl)-6-(3-(methoxymethyl)azetidin-1-yl)pyrimidin-4(3H)-one] |  |
| < 250 nM | Cn1cc(-c2cc(-n3c(Cl)cc4c(=O)n(CC5(O)CCN(C(=O)C6(C)CC6)CC5)cnc43)ccc2F)cn1 [Example 233, 6-Chloro-7-(4-fluoro-3-(1-methyl-1H-pyrazol-4-yl)phenyl)-3-((4-hydroxy-1-(1-methylcyclopropanecarbonyl)piperidin-4-yl)methyl)-3H-pyrrolo[2,3-d]pyrimidin-4(7H)-one] |  |
| 1000 to 200000 nM | C[C@H](CC(=O)N1CCC(O)(Cn2cnc(N3CCC(F)(F)CC3)cc2=O)CC1)c1ccccc1 [Example 160, (R)-6-(4,4-difluoropiperidin-1-yl)-3-((4-hydroxy-1-(3-phenylbutanoyl)piperidin-4-yl)methyl)pyrimidin-4(3H)-one] |  |
| 1000 to 200000 nM | C[C@H](CC(=O)N1CCC(O)(Cn2cnc(NCC(=O)N(C)C)cc2=O)CC1)c1ccccc1 [Example 161, (R)-2-((1-((4-hydroxy-1-(3-phenylbutanoyl)piperidin-4-yl)methyl)-6-oxo-1,6-dihydropyrimidin-4-yl)amino)-N,N-dimethylacetamide] |  |
| 1000 to 200000 nM | C[C@H](CC(=O)N1CCC(O)(Cn2cnc3c(-c4ccc(C(=O)O)cc4)n(C)nc3c2=O)CC1)c1ccccc1 [Example 243, (R)-4-(6-((4-Hydroxy-1-(3-phenylbutanoyl)piperidin-4-yl)methyl)-2-methyl-7-oxo-6,7-dihydro-2H-pyrazolo[4,3-d]pyrimidin-3-yl)benzoic Acid] |  |
